Among the test systems are HCT-15 colon; SF-295 CNS; SR leukemia; 786-0 renal; HCC-2998 colon; MALME-3M melanoma; SK-MEL-2 melanoma; A549 NSCLC.
What all share (assay): DTP human tumour cell line panel, 48 h

Each structure is given as a SMILES string.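 96-well plates; 48 h exposure; 5 concentrations. Endpoints by linear interpolation between flanking doses. Not reached: highest tested concentration assigned. GI50: concentration for 50% inhibition of growth. TGI: total growth inhibition.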 A value given as a limit tells only on which side of the number the result lay.

Usually GI50 stands for the concentration that inhibits growth by half. Usually TGI stands for the concentration giving total growth inhibition. As for `O=C(Nc1ccc(Cl)cc1)N1CCN(c2ccc3nncn3n2)CC1`, the GI50 in the assay on HCT-15 colon was 30.2 µM; in the assay with SF-295 CNS it was 53.4 µM; with SR leukemia it was 24.5 µM; in the assay on 786-0 renal it was above 100 µM; in the assay on HCC-2998 colon, 81.8 µM; in the assay on MALME-3M melanoma, 89.1 µM. Further, the GI50 with SK-MEL-2 melanoma is 65.4 µM. Moreover, the TGI with HCT-15 colon, in the assay on SF-295 CNS, in the assay on SR leukemia, in the assay with 786-0 renal, in the assay on HCC-2998 colon and in the assay on MALME-3M melanoma was above 100 µM each time. The compound also displayed a TGI with SK-MEL-2 melanoma above 100 µM.

As to `CCOC(=O)c1cc(C(=O)c2cc(OC)c(OC)c(OC)c2)n2ccc(-c3cc[n+](CC(=O)c4cc(OC)c(OC)c(OC)c4)cc3)cc12`, the GI50 in the assay with HCT-15 colon was 2.62 µM; with A549 NSCLC it was 3.29 µM; in the assay with 786-0 renal, 1.75 µM; in the assay on HCC-2998 colon, 3.32 µM; in the assay on MALME-3M melanoma, 1.73 µM; in the assay with SK-MEL-2 melanoma, 2.6 µM. Besides, the TGI was 7.93 µM in the assay with HCT-15 colon; 6.29 µM in the assay on A549 NSCLC; 3.39 µM in the assay on 786-0 renal; 15.1 µM with HCC-2998 colon; 3.68 µM in the assay with MALME-3M melanoma; 7.12 µM with SK-MEL-2 melanoma.

As for `O=C(CCl)Nc1ccc(Cc2ccc(NC(=O)CCl)cc2)cc1`, the GI50 is 3.55 µM in the assay with SF-295 CNS; 4.01 µM in the assay on A549 NSCLC; 0.704 µM in the assay with SR leukemia; 2.09 µM in the assay with 786-0 renal; 1.8 µM with HCC-2998 colon; 1.39 µM in the assay on MALME-3M melanoma. Moreover, the GI50 in the assay with SK-MEL-2 melanoma was 2.46 µM. Also, the TGI is 19.7 µM in the assay on SF-295 CNS; above 100 µM in the assay on A549 NSCLC; 5.56 µM in the assay with SR leukemia; 5.1 µM in the assay with 786-0 renal; 3.47 µM in the assay with HCC-2998 colon; 3.17 µM in the assay on MALME-3M melanoma. Moreover, the TGI with SK-MEL-2 melanoma was 7.54 µM.

For the compound `CCOP(=O)(OCC)C(NC(c1ccccc1)c1ccccc1)c1ccc(C(C)C)cc1` (stereo unspecified), the GI50 with HCT-15 colon is 3.22 µM; with SF-295 CNS, 2.92 µM; in the assay with A549 NSCLC, 4.84 µM; in the assay with 786-0 renal it was 5.6 µM; in the assay with HCC-2998 colon, 5.49 µM; with SK-MEL-2 melanoma it was 19.2 µM. Further, the TGI in the assay on HCT-15 colon was 13.1 µM; with SF-295 CNS, 11.7 µM; with A549 NSCLC it was 23.2 µM; with 786-0 renal, 18.9 µM; with HCC-2998 colon it was 18.2 µM; with SK-MEL-2 melanoma, 72.7 µM.

In the case of `CC1(C)CN(CCNc2nccc(-c3c(-c4cccc(O)c4)nc4sccn34)n2)S(=O)(=O)N1`, the GI50 was 11.5 µM in the assay with HCT-15 colon; 17.7 µM with SF-295 CNS; 14.2 µM in the assay with A549 NSCLC; 3.34 µM in the assay with SR leukemia; 11.2 µM in the assay on 786-0 renal; 19.5 µM in the assay with HCC-2998 colon. Also, the GI50 in the assay on SK-MEL-2 melanoma was 1.36 µM. Moreover, the TGI in the assay with HCT-15 colon, with SF-295 CNS, in the assay with A549 NSCLC, in the assay with SR leukemia, with 786-0 renal and with HCC-2998 colon was above 33.2 µM in each case. Besides, the TGI in the assay on SK-MEL-2 melanoma was 4.83 µM.

As for `Cc1ccc(C2C3Cc4ccccc4C3=NN2c2ccc(S(=O)(=O)NC(=O)Nc3ccccc3)cc2)cc1` (stereo unspecified), the GI50 in the assay on HCT-15 colon was 14.8 µM; in the assay with SF-295 CNS it was 12.8 µM; in the assay with A549 NSCLC, 12.7 µM; in the assay with SR leukemia, 2.51 µM; with 786-0 renal, 12.8 µM; in the assay with SK-MEL-2 melanoma, 14.2 µM. In addition, the TGI was 32.2 µM in the assay on HCT-15 colon; 33.6 µM in the assay with SF-295 CNS; 27.8 µM in the assay with A549 NSCLC; 16.1 µM in the assay on SR leukemia; 36.5 µM in the assay with 786-0 renal; 31.5 µM in the assay on SK-MEL-2 melanoma.

For `Cc1ccc2c(c1)C(O)(c1ccccc1)CCS2` (stereo unspecified), the TGI with HCT-15 colon is 42.4 µM; in the assay with SF-295 CNS it was 80.3 µM; in the assay on A549 NSCLC it was above 100 µM; with SR leukemia, 40.3 µM; in the assay on 786-0 renal, above 100 µM; with MALME-3M melanoma, 93.5 µM. In the assay on SK-MEL-2 melanoma, this compound yielded a TGI of 80.4 µM.

Regarding `CC(=N/NC(N)=S)/C(C)=N/NC(N)=S`, the TGI in the assay on HCT-15 colon, with A549 NSCLC, in the assay with SR leukemia, in the assay with 786-0 renal, in the assay with HCC-2998 colon and with MALME-3M melanoma was above 100 µM in each case. This compound also gave a TGI in the assay on SK-MEL-2 melanoma above 100 µM.

As to `CCOC(=O)c1cc2c(n1Cc1cc(OC)cc(OC)c1)-c1oncc1CC2`, the GI50 with HCT-15 colon is 0.13 µM; in the assay with SF-295 CNS it was 0.0518 µM; with A549 NSCLC, 0.27 µM; in the assay with SR leukemia it was 0.0475 µM; in the assay on 786-0 renal, 0.499 µM; in the assay with HCC-2998 colon, 0.411 µM. Moreover, the GI50 in the assay with SK-MEL-2 melanoma is above 100 µM. Moreover, the TGI in the assay on HCT-15 colon was above 100 µM; in the assay on A549 NSCLC, above 100 µM; in the assay on SR leukemia it was above 36.8 µM; in the assay with 786-0 renal, above 100 µM; in the assay on HCC-2998 colon, above 100 µM; with SK-MEL-2 melanoma it was above 100 µM.

Turning to `CC(=N\O)/C(C)=N/O.CC(=N\O)/C(C)=N/O.[Fe].[NH2-].c1c[nH]cn1`, the GI50 in the assay with HCT-15 colon, with SF-295 CNS, with A549 NSCLC, with SR leukemia, with 786-0 renal and with MALME-3M melanoma was above 100 µM throughout. Further, the GI50 in the assay with SK-MEL-2 melanoma is above 100 µM. In addition, the TGI in the assay on HCT-15 colon, in the assay on SF-295 CNS, in the assay on A549 NSCLC, in the assay with SR leukemia, in the assay on 786-0 renal and with MALME-3M melanoma was above 100 µM throughout. The same compound gave a TGI in the assay on SK-MEL-2 melanoma above 100 µM.

`CCOC(=O)c1ccc(NC(=O)c2cccc(NC3=C(Cl)C(=O)N(Cc4ccccc4)C3=O)c2)cc1`: the GI50 with HCT-15 colon, in the assay on SF-295 CNS, in the assay on A549 NSCLC, with 786-0 renal and with SK-MEL-2 melanoma was above 100 µM throughout. For the same compound, the TGI in the assay on HCT-15 colon, in the assay on SF-295 CNS, in the assay on A549 NSCLC, in the assay on 786-0 renal and in the assay with SK-MEL-2 melanoma was above 100 µM each time.

In the case of `CCOC(=O)c1cc2c(n1Cc1ccccc1OC)-c1oncc1CCC2`, the GI50 in the assay on HCT-15 colon is 2.24 µM; in the assay with SF-295 CNS, 1.38 µM; with SR leukemia, 0.438 µM; with 786-0 renal, above 100 µM; with HCC-2998 colon it was above 100 µM; with MALME-3M melanoma, 3.08 µM. For the same compound, the TGI in the assay with HCT-15 colon was above 100 µM; with SF-295 CNS, 6.1 µM; in the assay with SR leukemia it was above 100 µM; in the assay on 786-0 renal, above 100 µM; with HCC-2998 colon, above 100 µM; with MALME-3M melanoma, above 100 µM.

Source of the values: PubChem BioAssay (NCI).
